{"source": "patent US6417235B2", "about": "“Method and use of α-amino-β-mercapto-ethane derivatives as dicarbonyl scavengers for treatment of conditions resulting from protein, lipid, and DNA damage” (University of Kentucky Research Foundation, priority 2000, dated 2002)", "key": {"[1]": {"tested_on": "histone H1", "assay": "Histone H1 crosslinking by 12% SDS-PAGE with silver staining", "type": "biochemical, calf", "settings": "5 mM; histone H1, ADP-ribose reaction system", "description": "The following screening scheme is used (see Table 1): AGE-fluorescence is determined at the beginning and after five days of incubation. Test compounds that are inherently fluorescent (designated false negatives) were identified by the initial fluorescence measurement (See Table 1, NADH for example). Since these are compounds of uncertain activity, they are diverted directly to the second stage of the screen. Aminoguanidine, a known glycation inhibitory agent, was used as a positive control for suppression of the increase on AGE-fluorescence. After five days incubation and plate reading, fluorescence quenchers (designated false positives) are excluded by measuring the quenching activity of the test compound by addition of AGE modified protein having known fluorescence activity to one microtiter plate well containing test compound in the complete reaction mixture. For this, AGE-BSA is used as the AGE-type fluorescence standard. This AGE-BSA test excludes false positives compounds that function by fluorescence quenching. If fluorescence quenching occurs the test compound is excluded from further screening. […] The protein is visualized by silver staining of the gel. […] A compound that passes the first and second stage of the screen is considered a glycation inhibitor and is further evaluated for biological activity as described below. […]"}, "[2]": {"tested_on": "HaCat cells", "assay": "Protection of keratinocytes from alpha-dicarbonyl stress (cell count after 72 hour exposure)", "type": "cell-based, human", "settings": "FIG. 14", "description": "(§1) A continuous cell line of human epidermal keratinocytes (HaCat cells) and human dermal fibroblasts (CF-3 cells) were routinely cultured in 75 cm^2 flasks and split biweekly in DMEM containing 10% fetal bovine serum and kept in a humidified atmosphere containing 5% CO2 at 37° C. Human keratinocytes were split using 5% trypsin and human fibroblasts employed 1% trypsin. All experiments were carried out on 6 well dishes (Falcon USA), where keratinocytes were seeded at 2×10^4 cells/well and fibroblasts at 4×10^4 cells/well. Cells were left overnight to attach to the plate and the appropriate carbonyl scavenger was then added 15 minutes prior to the addition of the alpha-dicarbonyl stress compounds glyoxal or methylglyoxal. Following 72 hour exposure to the stress compound, cells were counted with a Coulter counter. the protective effects of the alpha-dicarbonyl scavengers were assessed by comparing the growth of untreated cells with cells exposed to alpha-carbonyl stress +/− test compound."}, "[3]": {"tested_on": "glycation of histone H1 by ADP-ribose", "assay": "Screening of inhibitors of nonoxidative advanced glycation: AGE-fluorescence on 96 well-microtiter plate", "type": "biochemical, calf", "settings": "(± SEM, n = 2); for AGE-fluorescence (day 5): complete reaction under air", "description": "All operations were carried out at 4° C. Chromatin was isolated from fresh calf thymus by extraction with 0.14 M NaCl, 0.05 M Na2S2O5, as described earlier in Wondrak supra. After repeated extraction with 5% HCl)4 and centrifugation (1500 g), histone H1 was precipitated from the supernatant by addition of TCA (20% final concentration v/v). The histone H1 precipitate was colleted by centrifugation (12,000 g) and deionized water. After extensive dialysis (MW cut-off: 12,000-14,000) against water for 48 h, the sample was lyophilized and the protein was stored at 4° C. SDS-PAGE (12%) was used to analyze the purity of the preparation.\nEarlier studies have reported that D-penicillamine inhibits collagen crosslinking and AGE fluorescence caused by sugars (McPherson, J. D., Shilton, B. H., and Walton, D. J. 1988. Role of Fructose in Glycation and Cross-Linking of Proteins. Biochemistry 27, 1901-1907) and reaction of D-penicillamine with aldehyde groups of proteins (Deshmukh, K., and Nimm, M. E. 1969. A Defect in the Intramolecular and Intermolecular Cross-linking of Collagen caused by Penicillamine. J. Biol. Chem. 244, 1787-1795). A number of different penicillamines and penicillamine derivatives were tested to determine the inhibition of AGE-fluorescence on histone H1 at physiological pH. The reaction conditions for the glycation of histone H1 by ADP-ribose mimic physiological conditions to the extent possible. Reaction mixtures contain 1.5 mg/ml histone Hl, 1.0 mM ADP-ribose, 50 mM potassium phosphate buffer, pH 7.4, 37° C. D,L-penicillamine; L-penicillamine; D-penicllamine; D-penicillaminedisulfide and N,S- isopropylidine-D-penicillamine were tested in concentrations of 1,5 and 10 mM. The detected reaction parameter representing the accumulation of protein damage is AGE-fluorescence ((λex=[…]), which is suppressed by the presence of a compound with inhibitory activity. Generation of AGE-type fluorescence (λex=355 nm; λem=405 nm) was monitored over time at 37° C; which is in the range of the broad excitation/emission maxima of AGE compounds. To allow high throughput sample processing on 96 well microtiter plates, the reaction volumes are 300 μl. Fluorescence on the 96-well microtiter plates was measured using an automated microtiter fluorescence reader. Fluorescence of the 1 ml samples of the glycation reaction mixtures was measured using a Hitachi F-200 fluorescence spectophotometer, and prior to measurement the protein sample is dialyzed extensively against water (MW cutoff=[…]), lyophilized and reconstituted in reaction buffer. For inhibitor screening the plate is read on a Fluoroskan II plate reader (Titertek, ICN) at the excitation/emission wavelengths set forth above at a bandwidth of 35 nm.\nThe following screening scheme is used (see Table 1): AGE-fluorescence is determined at the beginning and after five days of incubation. Test compounds that are inherently fluorescent (designated false negatives) were identified by the initial fluorescence measurement (See Table 1, NADH for example). Since these are compounds of uncertain activity, they are diverted directly to the second stage of the screen. Aminoguanidine, a known glycation inhibitory agent, was used as a positive control for suppression of the increase on AGE-fluorescence. After five days incubation and plate reading, fluorescence quenchers (designated false positives) are excluded by measuring the quenching activity of the test compound by addition of AGE modified protein having known fluorescence activity to one microtiter plate well containing test compound in the complete reaction mixture. For this, AGE-BSA is used as the AGE-type fluorescence standard. This AGE-BSA test excludes false positives compounds that function by fluorescence quenching. If fluorescence quenching occurs the test compound is excluded from further screening. […] The protein is visualized by silver staining of the gel. […]"}, "[4]": {"tested_on": "CF-3 cells", "assay": "Protection of fibroblasts from alpha-dicarbonyl stress (cell count after 72 hour exposure)", "type": "cell-based, human", "settings": "FIG. 14", "description": "as §1"}, "[5]": {"tested_on": "ΦX-174 DNA", "assay": "AGE-BSA photosensitized cleavage of ΦX-174 DNA under solar simulated light", "type": "biochemical", "settings": "for effect on AGE-BSA photosensitized DNA cleavage: solar simulated light, AGE-BSA as photosensitizer; for photosensitizing activity (DNA nicking): SSL 0.8-16 J/cm^2", "description": "Glycated Proteins as Photosensitizers of DNA Damage in Skin Photoaging. D-Penicillamine inhibits genotoxic consequences of AGE-photosensitization. Accumulation of AGEs on dermal elastin and collagen occurs during normal skin aging in humans. The hypothesis was tested that the intra- and extracellular accumulation of the complex yellow-brown AGE-chromophores contributes to skin aging and carcinogenesis induced by chronic exposure to sunlight. As a possible molecular mechanisms for a detrimental synergism of AGE-formation and exposure to sunlight, photosensitized DNA damage by AGEs was assessed in a simple in vitro system. Irradiation of covalently closed circular ΦX-174 DNA with increasing doses of solar simulated light (SSL) in the presence of AGE-BSA was used to detect photosensitized DNA nicking as a measure of DNA photodamage (panel A). […] Addition of several antioxidants modulated the photosensitization effect (panel C)."}, "[6]": {"tested_on": "HaCat keratinocytes", "assay": "AGE-photosensitization of human skin cells, growth inhibition under solar simulated light", "experimental": "Human HaCat keratinocytes growing on 35 mm dishes were exposed to solar simulated light (1.2 kJ/m^2 UVB and 23 kJ/m^2 UVA) in the presence or absence of AGE-BSA as a model of a protein with advanced glycation endproducts. Control populations were treated in exactly the same way as described above, but were not exposed to solar simulated light (SSL)."}}}
{"compound": "N=C(N)NN", "note": "[Aminoguanidine]", "values": [{"measurement": "inhibition of histone H1 crosslinking", "setting": "[1]", "result": "inhibit histone H1 crosslinking"}, {"measurement": "protection from alpha-dicarbonyl stress", "setting": "[2]", "result": "protection"}, {"measurement": "AGE-fluorescence (day 0)", "setting": "[3]; compound 1 mM", "result": "1.2 (0.1) relative units"}, {"measurement": "AGE-fluorescence (day 5)", "setting": "[3]; compound 1 mM", "result": "4.3 (0.2) relative units"}, {"measurement": "AGE-fluorescence (day 0)", "setting": "[3]; compound 5 mM", "result": "1.2 (0.1) relative units"}, {"measurement": "AGE-fluorescence (day 5)", "setting": "[3]; compound 5 mM", "result": "2.0 (0.0) relative units"}, {"measurement": "AGE-fluorescence (day 0)", "setting": "[3]; compound 10 mM", "result": "1.3 (0.1) relative units"}, {"measurement": "AGE-fluorescence (day 5)", "setting": "[3]; compound 10 mM", "result": "1.8 (0.0) relative units"}, {"measurement": "protection from alpha-dicarbonyl stress", "setting": "[4]", "result": "protection"}]}
{"compound": "OC[C@@H](O)[C@@H](O)[C@H](O)[C@H](O)CO", "note": "[Mannitol]", "values": [{"measurement": "effect on AGE-BSA photosensitized DNA cleavage", "setting": "[5]", "result": "blocked the photosensitized DNA cleavage"}]}
{"compound": "[N-]=[N+]=[N-].[Na+]", "note": "[NaN3]", "values": [{"measurement": "effect on AGE-BSA photosensitized DNA cleavage", "setting": "[5]", "result": "blocked the photosensitized DNA cleavage"}]}
{"compound": "AGE-BSA: Glycosylated Bovine Serum Albumin, BSA incubated with D-glucose for 90 days at 37° C.", "values": [{"measurement": "photosensitizing activity (DNA nicking)", "setting": "[5]", "result": "the damage was concentration dependent"}, {"measurement": "increase in growth inhibition as compared to SSL alone", "setting": "[6]; 10 mg/mL AGE-BSA with SSL", "result": 4, "unit": "fold"}, {"measurement": "growth inhibition", "setting": "[6]; 10 mg/mL AGE-BSA with SSL (1.2 kJ/m^2 UVB and 23 kJ/m^2 UVA)", "result": 80, "unit": "%"}]}
{"compound": "Unmodified BSA: unmodified bovine serum albumin", "values": [{"measurement": "photosensitizing activity (DNA nicking)", "setting": "[5]", "result": "no such photosensitizing activity"}]}
{"compound": "catalase", "values": [{"measurement": "effect on AGE-BSA photosensitized DNA cleavage", "setting": "[5]", "result": "not effective"}]}
